Assay results reported in PubChem BioAssay (NCI).
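GI50 = concentration required for 50% inhibition of growth. The concentration for full growth arrest is given as TGI.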

What was measured:
Assay in all cases: growth of human tumour cells (NCI), 384-well format
[1] = test system: 786-0 renal
[2] = test system: A498 renal
[3] = test system: A549 NSCLC
[4] = test system: ACHN renal
[5] = test system: BT-549 breast
[6] = test system: CAKI-1 renal
[7] = test system: CCRF-CEM leukemia
[8] = test system: COLO 205 colon
[9] = test system: DU-145 prostate
[10] = test system: EKVX NSCLC
[11] = test system: HCC-2998 colon
[12] = test system: HCT-116 colon
[13] = test system: HCT-15 colon
[14] = test system: HL-60(TB) leukemia
[15] = test system: HOP-62 NSCLC
[16] = test system: HOP-92 NSCLC
[17] = test system: HS 578T breast
[18] = test system: HT29 colon
[19] = test system: IGROV1 ovarian
[20] = test system: K-562 leukemia
[21] = test system: KM12 colon
[22] = test system: LOX IMVI melanoma
[23] = test system: M14 melanoma
[24] = test system: MALME-3M melanoma
[25] = test system: MCF7 breast
[26] = test system: MDA-MB-231 breast
[27] = test system: MDA-MB-435 melanoma
[28] = test system: MDA-MB-468 breast
[29] = test system: MOLT-4 leukemia
[30] = test system: NCI-H226 lung
[31] = test system: NCI-H23 lung
[32] = test system: NCI-H322M lung
[33] = test system: NCI-H460 NSCLC
[34] = test system: NCI-H522 lung
[35] = test system: NCI/ADR-RES ovarian
[36] = test system: OVCAR-3 ovarian
[37] = test system: OVCAR-4 ovarian
[38] = test system: OVCAR-5 ovarian
[39] = test system: OVCAR-8 ovarian
[40] = test system: PC-3 prostate
[41] = test system: RPMI-8226 leukemia
[42] = test system: RXF 393 renal
[43] = test system: SF-268 CNS
[44] = test system: SF-295 CNS
[45] = test system: SF-539 CNS
[46] = test system: SK-MEL-28 melanoma
[47] = test system: SK-MEL-5 melanoma
[48] = test system: SK-OV-3 ovarian
[49] = test system: SN12C renal
[50] = test system: SNB-19 CNS
[51] = test system: SNB-75 CNS
[52] = test system: SR leukemia
[53] = test system: SW-620 colon
[54] = test system: T-47D breast
[55] = test system: TK-10 renal
[56] = test system: U251 glioblastoma
[57] = test system: UACC-257 melanoma
[58] = test system: UO-31 renal
[59] = test system: UACC-62 melanoma

Work on `Cc1noc(C)c1-c1ccc2[nH]c(=O)n3c2c1OC[C@@H]3c1ccccn1` yielded a GI50 [1] of 0.749 µM, a TGI [1] greater than 100 µM and a GI50 [2] of 0.42 µM. It also gave a TGI [2] greater than 100 µM, a GI50 [3] of 0.656 µM and a TGI [3] greater than 100 µM. The GI50 [4] was 1.22 µM, the TGI [4] was greater than 100 µM and the GI50 [5] was 0.293 µM. For the same molecule, the TGI [5] was 25.2 µM, the GI50 [6] was 0.243 µM and the TGI [6] was greater than 100 µM. It also gave a GI50 [7] of 0.584 µM, a TGI [7] greater than 100 µM and a GI50 [8] of 0.527 µM. The TGI [8] was greater than 100 µM, the GI50 [9] was 14.2 µM and the TGI [9] was greater than 100 µM. The GI50 [10] was greater than 100 µM, the TGI [10] was greater than 100 µM and the GI50 [11] was 0.127 µM. For the same molecule, the TGI [11] was 2.11 µM, the GI50 [12] was 0.501 µM and the TGI [12] was greater than 100 µM. The GI50 [13] was 0.24 µM, the TGI [13] was 12 µM and the GI50 [14] was 0.0556 µM. It also gave a TGI [14] of 0.17 µM, a GI50 [15] of 0.304 µM and a TGI [15] of 62.2 µM. It also gave a GI50 [16] of 0.241 µM, a TGI [16] greater than 100 µM and a GI50 [17] of 0.152 µM. It also gave a TGI [17] of 1.6 µM, a GI50 [18] of 0.371 µM and a TGI [18] greater than 100 µM. It also gave a GI50 [19] of 0.532 µM, a TGI [19] of 53 µM and a GI50 [20] of 0.436 µM. The TGI [20] was greater than 100 µM, the GI50 [21] was 1.36 µM and the TGI [21] was greater than 100 µM. It also gave a GI50 [22] of 0.277 µM, a TGI [22] of 1.04 µM and a GI50 [23] of 0.72 µM. The TGI [23] was greater than 100 µM, the GI50 [24] was 0.398 µM and the TGI [24] was 32.3 µM. The GI50 [25] was 0.125 µM, the TGI [25] was greater than 100 µM and the GI50 [26] was 0.605 µM. For the same molecule, the TGI [26] was greater than 100 µM, the GI50 [27] was 13.7 µM and the TGI [27] was greater than 100 µM. It also gave a GI50 [28] of 0.241 µM, a TGI [28] of 8.12 µM and a GI50 [29] of 0.421 µM. It also gave a TGI [29] of 11.9 µM, a GI50 [30] of 1.43 µM and a TGI [30] greater than 100 µM. The GI50 [31] was 0.483 µM, the TGI [31] was greater than 100 µM and the GI50 [32] was 0.591 µM. For the same molecule, the TGI [32] was greater than 100 µM, the GI50 [33] was 2.19 µM and the TGI [33] was greater than 100 µM. For the same molecule, the GI50 [34] was 0.0766 µM, the TGI [34] was 4.8 µM and the GI50 [35] was 0.653 µM. It also gave a TGI [35] of 18.5 µM, a GI50 [36] of 0.227 µM and a TGI [36] greater than 100 µM. The GI50 [37] was 0.107 µM, the TGI [37] was 0.495 µM and the GI50 [38] was 0.529 µM. For the same molecule, the TGI [38] was greater than 100 µM, the GI50 [39] was 0.473 µM and the TGI [39] was greater than 100 µM. For the same molecule, the GI50 [40] was 0.245 µM, the TGI [40] was greater than 100 µM and the GI50 [41] was 0.133 µM. For the same molecule, the TGI [41] was 0.533 µM, the GI50 [42] was 0.483 µM and the TGI [42] was 11 µM. It also gave a GI50 [43] of 3.01 µM, a TGI [43] greater than 100 µM and a GI50 [44] of 0.144 µM. The TGI [44] was 41.8 µM, the GI50 [45] was 0.449 µM and the TGI [45] was 8.79 µM. The GI50 [46] was 0.813 µM, the TGI [46] was greater than 100 µM and the GI50 [47] was 0.198 µM. For the same molecule, the TGI [47] was 9.84 µM, the GI50 [48] was 0.244 µM and the TGI [48] was 21.3 µM. The GI50 [49] was 3.69 µM, the TGI [49] was greater than 100 µM and the GI50 [50] was 1.87 µM. It also gave a TGI [50] greater than 100 µM, a GI50 [51] of 1.27 µM and a TGI [51] greater than 100 µM. The GI50 [52] was 0.0523 µM, the TGI [52] was 2.04 µM and the GI50 [53] was greater than 100 µM. The TGI [53] was greater than 100 µM, the GI50 [54] was 0.318 µM and the TGI [54] was 47.8 µM. The GI50 [55] was 0.265 µM, the TGI [55] was 23.1 µM and the GI50 [56] was 2.56 µM. The TGI [56] was greater than 100 µM, the GI50 [57] was 0.925 µM and the TGI [57] was greater than 100 µM. For the same molecule, the GI50 [58] was 0.722 µM and the TGI [58] was greater than 100 µM.

With `C=CC(=O)N1CCN(c2ncnc3c(F)c(-c4c(O)cccc4F)c(Cl)cc23)CC1` the GI50 [1] was 3.34 µM, the TGI [1] was 12.4 µM and the GI50 [2] was 2.05 µM. The TGI [2] was 6.37 µM, the GI50 [3] was 2.36 µM and the TGI [3] was 5.74 µM. The GI50 [4] was 2.27 µM, the TGI [4] was 5.89 µM and the GI50 [5] was 1.73 µM. It also gave a TGI [5] of 4.14 µM, a GI50 [6] of 3.07 µM and a TGI [6] of 12.9 µM. For the same molecule, the GI50 [7] was 1.83 µM, the TGI [7] was 3.34 µM and the GI50 [8] was 2.33 µM. The TGI [8] was 5.19 µM, the GI50 [9] was 3.5 µM and the TGI [9] was 12.5 µM. It also gave a GI50 [10] of 5.74 µM, a TGI [10] of 18 µM and a GI50 [11] of 2.27 µM. For the same molecule, the TGI [11] was 4.32 µM, the GI50 [13] was 2.5 µM and the TGI [13] was 6.08 µM. The GI50 [14] was 1.68 µM, the TGI [14] was 3.08 µM and the GI50 [15] was 1.21 µM. For the same molecule, the TGI [15] was 4.8 µM, the GI50 [16] was 4.73 µM and the TGI [16] was 16.8 µM. The GI50 [17] was 1.71 µM, the TGI [17] was 3.87 µM and the GI50 [18] was 2.97 µM. For the same molecule, the TGI [18] was 8.72 µM, the GI50 [19] was 3.5 µM and the TGI [19] was 11.8 µM. For the same molecule, the GI50 [20] was 5.53 µM, the TGI [20] was 18.1 µM and the GI50 [21] was 2.92 µM. For the same molecule, the TGI [21] was 9.85 µM, the GI50 [22] was 2.08 µM and the TGI [22] was 5.21 µM. The GI50 [23] was 1.98 µM, the TGI [23] was 4.68 µM and the GI50 [24] was 3.58 µM. It also gave a TGI [24] of 9.59 µM, a GI50 [25] of 2.95 µM and a TGI [25] of 9.01 µM. The GI50 [26] was 5.17 µM, the TGI [26] was 18.5 µM and the GI50 [27] was 3.91 µM. For the same molecule, the TGI [27] was 13.9 µM, the GI50 [28] was 2.34 µM and the TGI [28] was 4.63 µM. The GI50 [29] was 2.08 µM, the TGI [29] was 3.62 µM and the GI50 [30] was 2.39 µM. The TGI [30] was 7.65 µM, the GI50 [31] was 0.0694 µM and the TGI [31] was 0.94 µM. For the same molecule, the GI50 [32] was 3.22 µM, the TGI [32] was 10.3 µM and the GI50 [33] was 2.78 µM. For the same molecule, the TGI [33] was 7.79 µM, the GI50 [34] was 3.1 µM and the TGI [34] was 8.43 µM. It also gave a GI50 [35] of 14 µM, a TGI [35] of 28.3 µM and a GI50 [36] of 1.83 µM. The TGI [36] was 3.9 µM, the GI50 [37] was 5.97 µM and the TGI [37] was 18.2 µM. It also gave a GI50 [38] of 3.66 µM, a TGI [38] of 11.9 µM and a GI50 [39] of 2.46 µM. For the same molecule, the TGI [39] was 6.4 µM, the GI50 [40] was 2.64 µM and the TGI [40] was 8.13 µM. It also gave a GI50 [41] of 1.6 µM, a TGI [41] of 3 µM and a GI50 [42] of 1.91 µM. It also gave a TGI [42] of 4.03 µM, a GI50 [43] of 2.09 µM and a TGI [43] of 5.38 µM. It also gave a GI50 [44] of 2.97 µM, a TGI [44] of 8.83 µM and a GI50 [45] of 2.4 µM. The TGI [45] was 5.02 µM, the GI50 [46] was 3.17 µM and the TGI [46] was 13.7 µM. It also gave a GI50 [47] of 2.39 µM, a TGI [47] of 5.66 µM and a GI50 [48] of 4.14 µM. The TGI [48] was 16.1 µM, the GI50 [49] was 4.48 µM and the TGI [49] was 15.4 µM. For the same molecule, the GI50 [50] was 4.08 µM, the TGI [50] was 14.9 µM and the GI50 [51] was 3.41 µM. For the same molecule, the TGI [51] was 16.7 µM, the GI50 [52] was 1 µM and the TGI [52] was 2.18 µM. It also gave a GI50 [53] of 3.78 µM, a TGI [53] of 11.3 µM and a GI50 [54] of 6.31 µM. It also gave a TGI [54] of 18.4 µM, a GI50 [55] of 8.84 µM and a TGI [55] of 30.7 µM. For the same molecule, the GI50 [57] was 3.65 µM, the TGI [57] was 9.18 µM and the GI50 [59] was 1.59 µM. It also gave a TGI [59] of 4.76 µM, a GI50 [58] of 3.58 µM and a TGI [58] of 12.5 µM.
